Assay: Stability studies of CBD prepared via Protocol 3 (crude, pure, 2x recrystallized; 5° C., 25° C./60% RH, 40° C./75% RH)
Assay type: physicochemical

Structure (SMILES): C=C(C)[C@@H]1CCC(C)=C[C@H]1c1c(O)cc(CCCCC)cc1O [Pure CBD]
- Related substances by HPLC (low level): Δ9-Tetrahydrocannabinol (25° C./60% RH, 0 month): 26 ppm
- Water content in % w/w (25° C./60% RH, 0 month): <0.05%
- Appearance (25° C./60% RH, 1 month): Off-White Powder
- Assay by HPLC (25° C./60% RH, 1 month): 99.7%
- Each unspecified impurity: RRT~1.927 (25° C./60% RH, 1 month): RRT~1.927: 0.06%
- Related substances by HPLC (low level): Δ8-Tetrahydrocannabinol (25° C./60% RH, 1 month): 25 ppm
- Related substances by HPLC (low level): Δ9-Tetrahydrocannabinol (25° C./60% RH, 1 month): 21 ppm
- Related substances by HPLC: 4-Monobromo-CBD (25° C./60% RH, 1 month): <0.03% (ND)
- Related substances by HPLC: Olivetol (25° C./60% RH, 1 month): <0.03% (ND)
- Related substances by HPLC: Sum of impurities, ≥0.05% (25° C./60% RH, 1 month): 0.06%
- Related substances by HPLC: Δ8-Tetrahydrocannabinol (25° C./60% RH, 1 month): <0.02% (ND)
- Related substances by HPLC: Δ9-Tetrahydrocannabinol (25° C./60% RH, 1 month): <0.02% (ND)
- Appearance (25° C./60% RH, 2 months): Off-White Powder
- Assay by HPLC (25° C./60% RH, 2 months): 100.3%
- Each unspecified impurity: RRT~1.935 (25° C./60% RH, 2 months): RRT~1.935: 0.08%
- Related substances by HPLC (low level): Δ8-Tetrahydrocannabinol (25° C./60% RH, 2 months): 21 ppm
- Related substances by HPLC (low level): Δ9-Tetrahydrocannabinol (25° C./60% RH, 2 months): 14 ppm
- Related substances by HPLC: 4-Monobromo-CBD (25° C./60% RH, 2 months): <0.03% (ND)
- Related substances by HPLC: Olivetol (25° C./60% RH, 2 months): <0.03% (ND)
- Related substances by HPLC: Sum of impurities, ≥0.05% (25° C./60% RH, 2 months): 0.08%
- Related substances by HPLC: Δ8-Tetrahydrocannabinol (25° C./60% RH, 2 months): <0.02% (ND)
- Related substances by HPLC: Δ9-Tetrahydrocannabinol (25° C./60% RH, 2 months): <0.02% (ND)
- Appearance (25° C./60% RH, 3 months): Off-white
- Assay by HPLC (25° C./60% RH, 3 months): 98.5%
- Each unspecified impurity: RRT~1.982 (25° C./60% RH, 3 months): RRT~1.982: 0.03%
- Related substances by HPLC (low level): Δ8-Tetrahydrocannabinol (25° C./60% RH, 3 months): 36 ppm
- Related substances by HPLC (low level): Δ9-Tetrahydrocannabinol (25° C./60% RH, 3 months): <4 ppm (2 ppm)
- Related substances by HPLC: 4-Monobromo-CBD (25° C./60% RH, 3 months): <0.03% (ND)
- Related substances by HPLC: Olivetol (25° C./60% RH, 3 months): <0.03% (ND)
- Related substances by HPLC: Sum of impurities, ≥0.05% (25° C./60% RH, 3 months): <0.05%
- Related substances by HPLC: Δ8-Tetrahydrocannabinol (25° C./60% RH, 3 months): <0.02% (ND)
- Related substances by HPLC: Δ9-Tetrahydrocannabinol (25° C./60% RH, 3 months): <0.02% (ND)
- Related substances by HPLC (low level): Δ9-Tetrahydrocannabinol (40° C./75% RH, 0 month): 26 ppm
- Water content in % w/w (40° C./75% RH, 0 month): <0.05%
- Appearance (40° C./75% RH, 1 month): Off-White
- Assay by HPLC (40° C./75% RH, 1 month): 99.5%
- Each unspecified impurity: RRT~1.929 (40° C./75% RH, 1 month): 0.05%
- Related substances by HPLC (low level): Δ8-Tetrahydrocannabinol (40° C./75% RH, 1 month): 22 ppm
- Related substances by HPLC (low level): Δ9-Tetrahydrocannabinol (40° C./75% RH, 1 month): 14 ppm
- Related substances by HPLC: 4-Monobromo-CBD (40° C./75% RH, 1 month): <0.03% (ND)
- Related substances by HPLC: Olivetol (40° C./75% RH, 1 month): <0.03% (ND)
- Related substances by HPLC: Sum of impurities, ≥0.05% (40° C./75% RH, 1 month): 0.05%
- Related substances by HPLC: Δ8-Tetrahydrocannabinol (40° C./75% RH, 1 month): <0.02% (ND)
- Related substances by HPLC: Δ9-Tetrahydrocannabinol (40° C./75% RH, 1 month): <0.02% (ND)
- Appearance (40° C./75% RH, 2 months): Off-White
- Assay by HPLC (40° C./75% RH, 2 months): 100.2%
- Each unspecified impurity: RRT~1.932 (40° C./75% RH, 2 months): 0.07%
- Related substances by HPLC (low level): Δ8-Tetrahydrocannabinol (40° C./75% RH, 2 months): 20 ppm
- Related substances by HPLC (low level): Δ9-Tetrahydrocannabinol (40° C./75% RH, 2 months): 9 ppm
- Related substances by HPLC: 4-Monobromo-CBD (40° C./75% RH, 2 months): <0.03% (ND)
- Related substances by HPLC: Olivetol (40° C./75% RH, 2 months): <0.03% (ND)
- Related substances by HPLC: Sum of impurities, ≥0.05% (40° C./75% RH, 2 months): 0.07%
- Related substances by HPLC: Δ8-Tetrahydrocannabinol (40° C./75% RH, 2 months): <0.02% (ND)
- Related substances by HPLC: Δ9-Tetrahydrocannabinol (40° C./75% RH, 2 months): <0.02% (ND)
- Appearance (40° C./75% RH, 3 months): Off-white
- Assay by HPLC (40° C./75% RH, 3 months): 98.8%
- Each unspecified impurity: RRT~1.983 (40° C./75% RH, 3 months): 0.03%
- Related substances by HPLC (low level): Δ8-Tetrahydrocannabinol (40° C./75% RH, 3 months): 30 ppm
- Related substances by HPLC (low level): Δ9-Tetrahydrocannabinol (40° C./75% RH, 3 months): <4 ppm (ND)
- Related substances by HPLC: 4-Monobromo-CBD (40° C./75% RH, 3 months): <0.03% (ND)
- Related substances by HPLC: Olivetol (40° C./75% RH, 3 months): <0.03% (ND)
- Related substances by HPLC: Sum of impurities, ≥0.05% (40° C./75% RH, 3 months): <0.05%
- Related substances by HPLC: Δ8-Tetrahydrocannabinol (40° C./75% RH, 3 months): <0.02% (ND)
- Related substances by HPLC: Δ9-Tetrahydrocannabinol (40° C./75% RH, 3 months): <0.02% (ND)
- Appearance (40° C./75% RH, 5 months): Off-white
- Assay by HPLC (40° C./75% RH, 5 months): 99.9%
- Each unspecified impurity: RRT~1.918 (40° C./75% RH, 5 months): 0.04%
- Related substances by HPLC (low level): Δ8-Tetrahydrocannabinol (40° C./75% RH, 5 months): 36 ppm
- Related substances by HPLC (low level): Δ9-Tetrahydrocannabinol (40° C./75% RH, 5 months): 6 ppm
- Related substances by HPLC: 4-Monobromo-CBD (40° C./75% RH, 5 months): <0.03% (ND)
- Related substances by HPLC: Olivetol (40° C./75% RH, 5 months): <0.03% (ND)
- Related substances by HPLC: Sum of impurities, ≥0.05% (40° C./75% RH, 5 months): <0.05%
- Related substances by HPLC: Δ8-Tetrahydrocannabinol (40° C./75% RH, 5 months): <0.02% (ND)
- Related substances by HPLC: Δ9-Tetrahydrocannabinol (40° C./75% RH, 5 months): <0.02% (ND)
